From ChEMBL document CHEMBL1149460, “Pharmacokinetics and metabolism studies on (3-tert-butyl-7-(5-methylisoxazol-3-yl)-2-(1-methyl-1H-1,2,4-triazol-5-ylmethoxy) pyrazolo[1,5-d][1,2,4]triazine, a functionally selective GABA(A) alpha5 inverse agonist for cognitive dysfunction” (Bioorg Med Chem Lett, 2006) come the findings set out here.

Each structure is given as a SMILES string. pKi: −log10 of the molar value.

The target in data set [1] is GABA-A receptor; anion channel (Rattus norvegicus) (UniProt O09028+P15431+P18506+P18508+P19969+P20236+P23574+P23576+P28471+P28473+P30191+P62813+P63079+P63138+Q91ZM7+Q9ES14). The experiment in a line: Receptor occupancy in vivo by displacement of [3H]Ro 15-1788 binding from rat brain GABAA receptor at 3 mg/kg, ip. Set-up: dose 3 mg/kg. In kind it is functional, organism-based.

A short description of data set [2]: Efficacy against human GABA alpha-3 receptor expressed in mouse fibroblast L(tk-) cells by whole cell patch clamp method. In kind it is functional.
Data set [3] addresses GABA A receptor alpha-1/beta-1/gamma-2 (Homo sapiens) (UniProt P14867+P18507+P18505). Kind of data set: Efficacy against human GABA alpha-1 receptor expressed in mouse fibroblast L(tk-) cells by whole cell patch clamp method. The data set is classed as functional, cell-based. A general note: Patch clamp records ionic current or voltage across a cell membrane.
Data set [4] is described as follows: Binding affinity to GABA alpha5 receptor. Set-up: species or system Homo sapiens.
Data set [5] is described as follows: Efficacy against human GABA alpha-2 receptor expressed in mouse fibroblast L(tk-) cells by whole cell patch clamp method. In kind it is functional.
Data set [6] is described as follows: Efficacy against human GABA alpha-5 receptor expressed in mouse fibroblast L(tk-) cells by whole cell patch clamp method. In kind it is functional.
Data set [7] in a line: Clearance in rhesus. The data set is classed as ADME, organism-based, Macaca mulatta. Conditions: rhesus monkey, in vivo.
Data set [8] is described as follows: Half life in rat. Conditions: in vivo. In kind it is ADME, organism-based.
Data set [9] is described as follows: Clearance in rat. In kind it is ADME, organism-based. Conditions: in vivo.
Data set [10] can be described thus: Half life in rhesus. In kind it is ADME, organism-based, Macaca mulatta. Conditions: rhesus monkey, in vivo.
A short description of data set [11]: Half life in dog. In kind it is ADME, organism-based, Canis lupus familiaris. Conditions: in vivo.
Data set [12] can be described thus: Clearance in dog. In kind it is ADME, organism-based, Canis lupus familiaris. Conditions: in vivo.
Data set [13] is described as follows: Oral bioavailability in rhesus. In kind it is ADME, organism-based, Macaca mulatta. Conditions: rhesus monkey, in vivo.

As usually defined, the pKi is the negative decadic logarithm of the Ki, by convention in mol/L. As for `Cn1ncnc1COc1nn2c(-c3cc(CO)on3)nncc2c1C(C)(C)CO`, the Activity in data set [1] is 8%. Besides, the Efficacy in data set [2] is -39%; in data set [3], -45%; in data set [5] it was -31%; in data set [6], -44%. The compound also had a pKi in data set [4] of 7.68.
Compound `Cc1cc(-c2nncc3c(C(C)(C)CO)c(OCc4ncnn4C)nn23)no1` displayed an Activity in [1] of 21%. For the same compound, the Efficacy in data set [2] was -32%; in data set [3] it was -41%; in data set [5] it was -23%; in data set [6], -40%. The compound further gave a pKi in data set [4] of 8.03.
The term clearance denotes the volume of plasma or blood freed of the substance per unit of time. A lower clearance goes with a low capacity for elimination. By half-life is commonly meant the time in which the quantity being followed falls by half. A low value points to fast loss. One may read the bioavailability as the share of a dose that reaches the circulation, judged against a reference dose that is usually intravenous. A low value points to little systemic uptake. For the compound `Cc1cc(-c2nncc3c(C(C)(C)C)c(OCc4ncnn4C)nn23)no1`, the clearance in data set [7] was determined as 33 mL/min/kg; in data set [9] it was 27 mL/min/kg; in data set [12], 39 mL/min/kg. Besides, the half-life in [8] is 30 min; in data set [10] it was 18 min; in data set [11], 30 min. Besides, the Activity in data set [1] was greater than 95%. Also, the Efficacy in data set [2] was -9%; in [3], -16%; in data set [5], 6%; in data set [6], -55%. The compound also had a pKi in data set [4] of 8.85. In data set [13], the bioavailability is less than 2%.
In turn, `Cn1ncnc1COc1nn2c(-c3cc(CO)on3)nncc2c1C(C)(C)C` showed an Activity in data set [1] of 12%. The Efficacy is -15% in data set [2], -11% in data set [3], -1% in data set [5] and -52% in data set [6]. For the same compound, the pKi in [4] is 8.96.
For the compound `Cn1ncnc1COc1nn2c(-c3cc(CO)on3)nnc(O)c2c1C(C)(C)C`, the pKi in data set [4] was 6.43.
Turning to `Cc1cc(-c2nnc(O)c3c(C(C)(C)CO)c(OCc4ncnn4C)nn23)no1`, the pKi in data set [4] was less than 6.18.
`Cc1cc(-c2nnc(O)c3c(C(C)(C)C)c(OCc4ncnn4C)nn23)no1`: the Efficacy was -8% in data set [2], 1% in data set [3], 0% in data set [5] and -47% in data set [6]. In addition, the pKi in [4] was 6.15.
